The NIST ThermoML archive (doi:10.1016/j.jct.2005.11.003)

What was measured:
[1] = xn = mol fraction of the nth substance listed; settings: 298.15 K, 101 kPa, Liquid
[2] = excess molar enthalpy (molar enthalpy of mixing); xn = mol fraction of the nth substance listed; settings: 298.15 K, 101 kPa, Liquid
[3] = refractive index (Na D-line) (dimensionless); settings: 298.15 K; 101.33 kPa; Liquid
[4] = 298.15 K; 101.33 kPa; Liquid

ClCCCCCCCl [1,6-dichlorohexane] + CCCCOC(=O)CC
[1]
Settings | mass density [kg/m3]
x2 = 0.0591 | 1052.23
x2 = 0.1161 | 1041.11
x2 = 0.1728 | 1030.03
x2 = 0.2284 | 1019.22
x2 = 0.345 | 996.62
x2 = 0.4083 | 984.38
x2 = 0.4668 | 973.12
x2 = 0.5258 | 961.74
x2 = 0.6403 | 939.75
x2 = 0.6994 | 928.38
x2 = 0.7645 | 915.95
x2 = 0.8173 | 905.83
x2 = 0.8835 | 893.21
x2 = 0.9423 | 882.05

ClCCCCCCCl [1,6-dichlorohexane] + CCCCOC(C)=O
[1]
Settings | mass density [kg/m3]
x2 = 0.0673 | 1052.28
x2 = 0.1308 | 1041.35
x2 = 0.1929 | 1030.53
x2 = 0.2552 | 1019.5
x2 = 0.3164 | 1008.57
x2 = 0.3768 | 997.63
x2 = 0.4368 | 986.64
x2 = 0.4966 | 975.54
x2 = 0.554 | 964.77
x2 = 0.6113 | 953.89
x2 = 0.6692 | 942.75
x2 = 0.7252 | 931.87
x2 = 0.7823 | 920.59
x2 = 0.8912 | 898.78
x2 = 0.9466 | 887.47

ClCCCCCCCl [1,6-dichlorohexane] + CCCCOC=O
Settings | excess molar enthalpy [kcal/mol] | mass density [kg/m3]
[1], x2 = 0.0782 | – | 1052.81
[1], x2 = 0.1483 | – | 1042.74
[1], x2 = 0.2157 | – | 1032.73
[1], x2 = 0.2827 | – | 1022.46
[1], x2 = 0.3478 | – | 1012.18
[1], x2 = 0.4104 | – | 1002.02
[1], x2 = 0.5319 | – | 981.37
[1], x2 = 0.5893 | – | 971.18
[1], x2 = 0.6457 | – | 960.88
[1], x2 = 0.7539 | – | 940.28
[1], x2 = 0.8053 | – | 930.03
[1], x2 = 0.9044 | – | 909.61
[1], x2 = 0.9513 | – | 899.53
[2], x2 = 0.0701 | 0.0129 | –
[2], x2 = 0.1508 | 0.0227 | –
[2], x2 = 0.2299 | 0.0298 | –
[2], x2 = 0.3026 | 0.0332 | –
[2], x2 = 0.371 | 0.0338 | –
[2], x2 = 0.434 | 0.0322 | –
[2], x2 = 0.491 | 0.0291 | –
[2], x2 = 0.5401 | 0.0255 | –
[2], x2 = 0.5778 | 0.0221 | –
[2], x2 = 0.6131 | 0.02 | –
[2], x2 = 0.6659 | 0.0173 | –
[2], x2 = 0.7195 | 0.016 | –
[2], x2 = 0.7775 | 0.0137 | –
[2], x2 = 0.8372 | 0.0105 | –
[2], x2 = 0.8968 | 0.00693 | –
[2], x2 = 0.9528 | 0.00313 | –

CCCCOC(=O)CCC [butyl butanoate]
Settings | mass density [kg/m3] | refractive index
[3] | – | 1.404
[4] | 864.84 | –

CCCCOC(=O)CCC [butyl butanoate] + ClCCCCCCCl
[1]
Settings | mass density [kg/m3]
x1 = 0.0545 | 1051.6
x1 = 0.1071 | 1040.01
x1 = 0.16 | 1028.52
x1 = 0.2136 | 1017
x1 = 0.2692 | 1005.25
x1 = 0.3239 | 993.9
x1 = 0.3815 | 982.05
x1 = 0.439 | 970.43
x1 = 0.5565 | 947.09
x1 = 0.6826 | 922.79
x1 = 0.7398 | 911.99
x1 = 0.803 | 900.24
x1 = 0.8726 | 887.54
x1 = 0.9323 | 876.78

CCCCOC(=O)CCC [butyl butanoate] + ClCCCCCCl
[1]
Settings | mass density [kg/m3]
x1 = 0.0481 | 1081.06
x1 = 0.0957 | 1067.51
x1 = 0.1451 | 1053.83
x1 = 0.1939 | 1040.72
x1 = 0.2465 | 1026.89
x1 = 0.3533 | 1000.09
x1 = 0.4105 | 986.32
x1 = 0.5282 | 959.19
x1 = 0.6536 | 932.02
x1 = 0.7875 | 904.75
x1 = 0.8568 | 891.25

CCCCOC(=O)CCC [butyl butanoate] + ClCCCCCl
[1]
Settings | mass density [kg/m3]
x1 = 0.0415 | 1117.54
x1 = 0.0836 | 1101.67
x1 = 0.1727 | 1070.09
x1 = 0.2202 | 1054.28
x1 = 0.322 | 1022.51
x1 = 0.3752 | 1006.99
x1 = 0.4319 | 991.17
x1 = 0.4904 | 975.58
x1 = 0.554 | 959.43
x1 = 0.6186 | 943.82
x1 = 0.7579 | 912.57
x1 = 0.8338 | 896.78
x1 = 0.9131 | 881.09

CCCCOC(=O)CCC [butyl butanoate] + ClCCCCl
[1]
Settings | mass density [kg/m3]
x1 = 0.0357 | 1159.7
x1 = 0.0715 | 1141.38
x1 = 0.1103 | 1122.7
x1 = 0.1503 | 1104.39
x1 = 0.1936 | 1085.72
x1 = 0.2376 | 1067.78
x1 = 0.2869 | 1048.84
x1 = 0.3371 | 1030.74
x1 = 0.3921 | 1012.12
x1 = 0.4496 | 993.89
x1 = 0.5117 | 975.49
x1 = 0.5785 | 957.03
x1 = 0.6494 | 938.78
x1 = 0.7262 | 920.43
x1 = 0.8114 | 901.61
x1 = 0.8978 | 884.02

CCCCOC(=O)CCC [butyl butanoate] + ClCCCl
[1]
Settings | mass density [kg/m3]
x1 = 0.0297 | 1221.83
x1 = 0.0605 | 1198.84
x1 = 0.0933 | 1176.2
x1 = 0.1275 | 1153.91
x1 = 0.1649 | 1131.5
x1 = 0.2054 | 1109
x1 = 0.2498 | 1086.2
x1 = 0.2967 | 1064.01
x1 = 0.3484 | 1041.64
x1 = 0.4037 | 1019.73
x1 = 0.4652 | 997.47
x1 = 0.5324 | 975.45
x1 = 0.605 | 953.73
x1 = 0.6862 | 931.87
x1 = 0.7785 | 909.66
x1 = 0.8821 | 887.38

CCCCOC(C)=O [butyl ethanoate]
Settings | mass density [kg/m3] | refractive index
[3] | – | 1.3918
[4] | 876.4 | –

CCCCOC=O [butyl methanoate]
Settings | mass density [kg/m3] | refractive index
[3] | – | 1.387
[4] | 888.17 | –

CCCCOC=O [butyl methanoate] + ClCCCl
Settings | excess molar enthalpy [kcal/mol] | mass density [kg/m3]
[1], x1 = 0.0423 | – | 1223.68
[1], x1 = 0.0859 | – | 1202
[1], x1 = 0.1303 | – | 1180.75
[1], x1 = 0.1772 | – | 1159.35
[1], x1 = 0.2251 | – | 1138.25
[1], x1 = 0.2748 | – | 1117.45
[1], x1 = 0.3271 | – | 1096.31
[1], x1 = 0.382 | – | 1075.28
[1], x1 = 0.4376 | – | 1054.83
[1], x1 = 0.497 | – | 1034.05
[1], x1 = 0.5604 | – | 1012.84
[1], x1 = 0.6255 | – | 992.02
[1], x1 = 0.6925 | – | 971.62
[1], x1 = 0.7638 | – | 950.97
[1], x1 = 0.8379 | – | 930.45
[1], x1 = 0.9173 | – | 909.53
[2], x1 = 0.0384 | 0.00172 | –
[2], x1 = 0.0884 | 0.000765 | –
[2], x1 = 0.1406 | -0.00378 | –
[2], x1 = 0.2002 | -0.0103 | –
[2], x1 = 0.254 | -0.018 | –
[2], x1 = 0.3052 | -0.026 | –
[2], x1 = 0.35 | -0.0329 | –
[2], x1 = 0.3874 | -0.0387 | –
[2], x1 = 0.4396 | -0.0436 | –
[2], x1 = 0.4751 | -0.0469 | –
[2], x1 = 0.5277 | -0.049 | –
[2], x1 = 0.5938 | -0.0454 | –
[2], x1 = 0.6645 | -0.0433 | –
[2], x1 = 0.741 | -0.0382 | –
[2], x1 = 0.8303 | -0.029 | –
[2], x1 = 0.9138 | -0.0176 | –

CCCCOC(=O)CC [butyl propanoate]
Settings | mass density [kg/m3] | refractive index
[3] | – | 1.399
[4] | 871.08 | –

CCCCOC(=O)CC [butyl propanoate] + ClCCCl
[1]
Settings | mass density [kg/m3]
x1 = 0.0334 | 1222.24
x1 = 0.0679 | 1199.39
x1 = 0.1032 | 1177.4
x1 = 0.1419 | 1154.78
x1 = 0.1821 | 1132.96
x1 = 0.2255 | 1110.88
x1 = 0.2719 | 1088.82
x1 = 0.3218 | 1066.84
x1 = 0.3754 | 1044.9
x1 = 0.4321 | 1023.34
x1 = 0.4959 | 1001.02
x1 = 0.5617 | 979.72
x1 = 0.636 | 957.49
x1 = 0.7142 | 936.1
x1 = 0.804 | 913.62
x1 = 0.8938 | 893.14
